Source: patent US6509356B1, “1-(4-(Substituted alkoxy)benzyl)naphthalene compounds having estrogen inhibitory activity” (Eli Lilly and Company, priority 1997, dated 2003)
Counter-ions that a name gives are not always drawn.

Tested on: MCF-7 breast adenocarcinoma cells
Assay: MCF-7 Proliferation Assay (tritiated thymidine incorporation)
Assay type: cell-based
Conditions: Homo sapiens, MCF7; MCF-7 cells (ATCC HTB 22) in DCC-FBS assay medium, 48 hours with drug, then tritiated thymidine pulse for 4 hours; read-out: Inhibition of MCF7 cell proliferation: ED50
Source text: Biological Activity of the Compounds of the Present Invention—MCF-7 Proliferation Assay
The data reported in each of the Examples given above for inhibition of MCF-7 cell proliferation were obtained in an assay which determined each compound's ability to inhibit the proliferation of MCF-7 breast adenocarcinoma cells.
In the assay, these cells (ATCC HTB 22) are maintained in minimal essential medium, phenol red-free, (Sigma, St. Louis, Mo.) supplemented with 10% (V/V) fetal bovine serum (FBS), L-glutamine (2 mM), sodium pyruvate (1 mM), HEPES {(N-[2-hydroxyethyl]piperazine-N′-[2-ethanesulfonic acid] 10 mM}, non-essential amino acids and bovine insulin (1 ug/mL) (maintenance medium). Ten days prior to assay, MCF-7 cells are switched to maintenance medium supplemented with 10% dextran coated charcoal stripped fetal bovine serum (DCC-FBS) assay medium) in place of 10% FBS to deplete internal stores of steroids. MCF-7 cells are removed from maintenance flasks using cell dissociation medium (Ca++/Mg++ free HBSS (phenol red-free) supplemented with 10 mM HEPES and 2 mM EDTA). Cells are washed twice with assay medium and adjusted to 80,000 cells/mL. Approximately […] (8,000 cells) are added to flat-bottom microculture wells (Costar 3596) and incubated at 37° C. in a 5% CO2 humidified incubator for 48 hours to allow for cell adherence and equilibration after transfer. Serial dilutions of drugs or DMSO as a diluent control are prepared in assay medium and […] to triplicate microcultures followed by […] assay medium for a final volume of […]. After an additional 48 hours at 37° C. in a 5% CO2 humidified incubator, microcultures are pulsed with tritiated thymidine (1 uCi/well) for 4 hours. Cultures are terminated by freezing at −70° C. for 24 hours followed by thawing and harvesting of microcultures using a Skatron Semiautomatic Cell Harvester. Samples are counted by liquid scintillation using a Wallac BetaPlace β counter.

SMILES | EC50 [nM]
CN1CCCC1COc1ccc(Cc2c(-c3ccc(O)cc3)ccc3cc(O)ccc23)cc1 (centres unmarked) [Example 1, 6-Hydroxy-2-(4-hydroxyphenyl)-1-[4-(N-methylpyrrolidin-2-yl)methoxy-benzyl]naphthalene hydrochloride] | 0.5
CCN(CC)CCCOc1ccc(Cc2c(-c3ccc(O)cc3)ccc3cc(O)ccc23)cc1 [Example 2, 6-Hydroxy-2-(4-hydroxyphenyl)-1-[4-(3-(N,N-diethylamino)-propoxy)benzyl]naphthalene hydrochloride] | 0.9
CC(C)N(CCOc1ccc(Cc2c(-c3ccc(O)cc3)ccc3cc(O)ccc23)cc1)C(C)C [Example 3, 6-hydroxy-2-(4-hydroxyphenyl)-1-[4-(2-(N,N-diisopropyl-amino)ethoxy)benzyl]naphthalene hydrochloride] | 2
CN1CCCCC1COc1ccc(Cc2c(-c3ccc(O)cc3)ccc3cc(O)ccc23)cc1 (centres unmarked) [Example 4, 6-hydroxy-2-(4-hydroxyphenyl)-1-[4-(N-methylpiperidin-2-yl)-methoxybenzyl]naphthalene hydrochloride] | 2
CN1CCCC(COc2ccc(Cc3c(-c4ccc(O)cc4)ccc4cc(O)ccc34)cc2)C1 (centres unmarked) [Example 5, 6-hydroxy-2-(4-hydroxyphenyl)-1-[4-(N-methylpiperidin-3-yl)-methoxybenzyl]naphthalene hydrochloride] | 2
CCCCN(CCCC)CCOc1ccc(Cc2c(-c3ccc(O)cc3)ccc3cc(O)ccc23)cc1 [Example 6, 6-hydroxy-2-(4-hydroxyphenyl)-1-[4-(2-(N,N-di-n-butylamino)-ethoxy)benzyl]naphthalene hydrochloride] | 2
CCCCN(CCCC)CCCOc1ccc(Cc2c(-c3ccc(O)cc3)ccc3cc(O)ccc23)cc1 [Example 7, 6-hydroxy-2-(4-hydroxyphenyl)-1-[4-(3-(N,N-di-n-butylamino)-propoxy)benzyl]naphthalene hydrochloride] | 4
CC(=O)c1ccc(N2CCN(CCOc3ccc(Cc4c(-c5ccc(O)cc5)ccc5cc(O)ccc45)cc3)CC2)cc1 [Example 8, 6-hydroxy-2-(4-hydroxyphenyl)-1-[4-(2-(4-(4-acetylphenyl)piperazin-1-yl)ethoxy)benzyl]-naphthalene dihydrochloride] | 4
Oc1ccc(-c2ccc3cc(O)ccc3c2Cc2ccc(OCCCNc3cccc4ccccc34)cc2)cc1 [Example 9, 6-hydroxy-2-(4-hydroxyphenyl)-1-[4-(3-(naphth-1-ylamino)propoxy)benzyl]naphthalene hydrochloride] | 9

Further lines, results first:

EC50 [nM] | SMILES
10 | CCN(CCOc1ccc(Cc2c(-c3ccc(O)cc3)ccc3cc(O)ccc23)cc1)C(=O)Nc1cc(Cl)ccc1C [Example 11, N-ethyl-N-[4-(2-(6-hydroxy-2-(4-hydroxyphenyl)naphth-1-yl-methyl)phenoxy)ethyl]-N′-5-chloro-2-methylphenyl urea]
20 | CC1CN(CCOc2ccc(Cc3c(-c4ccc(O)cc4)ccc4cc(O)ccc34)cc2)CC(C)O1 (centres unmarked) [Example 13, 6-hydroxy-2-(4-hydroxyphenyl)-1-[4-(2-(2,6-dimethylmorpholin-4-yl)ethoxy)benzyl]naphthalene hydrochloride]
30 | Oc1ccc(-c2ccc3cc(O)ccc3c2Cc2ccc(OCCCN3CCC4(CCCCC4)CC3)cc2)cc1 [Example 14, hydrochloride]
40 | O=C1CCCN1CCOc1ccc(Cc2c(-c3ccc(O)cc3)ccc3cc(O)ccc23)cc1 [Example 15, 6-hydroxy-2-(4-hydroxyphenyl)-1-[4-(2-(pyrollidinon-1-yl)ethoxy)benzyl]naphthalene]
30 | O=C1CCCN1CCCOc1ccc(Cc2c(-c3ccc(O)cc3)ccc3cc(O)ccc23)cc1 [Example 16, 6-hydroxy-2-(4-hydroxyphenyl)-1-[4-(3-(pyrollidinon-1-yl)propoxy)benzyl]naphthalene]
